We go through 3 compounds from EPA's ToxRefDB 2.

For data set [1], the system named is rat. To be noted: Subchronic oral toxicity in rodents, sprague dawley, Feed, dose end: 13 week, group: systemic, systemic / clinical chemistry / alanine aminotransferase (alt/sgpt) / alanine aminotransferase (alt/sgpt) + systemic / clinical chemistry / ….
In data set [2] the test system is rat. The conditions noted are these: Multigenerational reproductive toxicity study, sprague dawley, Oral, Feed, dose end: 3 generation.
Data set [3] has as its system mouse. The conditions noted are these: Developmental neurotoxicity study; cd1; Oral; Feed; dose end: 63 PND; group: cannot be grouped; reproductive / offspring survival early / dead fetuses / dead fetuses.
In data set [4] the test system is mouse. To be noted: Combined chronic toxicity/carcinogenicity, b6c3f1, Oral, Feed, dose end: 105 week, group: systemic.
Data set [5] deals with rat. To be noted: Combined chronic toxicity/carcinogenicity, fischer, Oral, Feed, dose end: 105 week, group: systemic.
The subject of data set [6] is rat. To be noted: Prenatal developmental toxicity study, fischer, Oral, Feed, dose end: 20 GD.
For data set [7], the system named is rat. To be noted: Subchronic oral toxicity in rodents, fischer, Feed, dose end: 11 week, group: systemic, systemic / in life observation / body weight / body weight.
For data set [8], the system named is mouse. The conditions noted are these: Carcinogenicity; b6c3f1; Oral; Feed; dose end: 101 week; group: systemic; systemic / in life observation / body weight / body weight + systemic / pathology microscopic / urinary bladder / inflammation.
Data set [9] deals with rat. To be noted: Carcinogenicity, fischer, Oral, Feed, dose end: 100 week, group: systemic.
The next data set relates to rabbit. The conditions noted are these: Subchronic dermal toxicity, new zealand white, Topical, dose end: 13 week, group: systemic, systemic / in life observation / clinical signs / erythema + systemic / pathology gross / skin / [other] + systemic / pathology microscopic….
Setting [10] is: group: offspring, developmental / developmental landmark / vaginal opening / vaginal opening + systemic / in life observation / body weight / offspring (pup) ….
Setting [11] is: group: parental, systemic / in life observation / body weight / body weight + systemic / organ weight / kidney / absolute + systemic / organ weight / kidney….
[12] abbreviates: group: reproductive, reproductive / reproductive performance / fertility / fertility + reproductive / offspring survival early / litter size / litter size.
Setting [13] is: systemic / pathology microscopic / testes / degeneration + systemic / pathology microscopic / liver / carcinoma.
[14] abbreviates: systemic / in life observation / body weight / body weight gain.
The mark [15] stands for this setting: group: developmental, systemic / in life observation / body weight / fetal weight.
Setting [16] is: group: maternal, systemic / in life observation / body weight / body weight + systemic / in life observation / body weight / body weight gain + systemic / ….
[17] abbreviates: group: maternal, systemic / organ weight / liver / absolute + systemic / organ weight / liver / relative to body weight + systemic / in life observation / ….
Where [18] appears, read: systemic / in life observation / body weight / body weight + systemic / pathology gross / eye / opacity.

The structures appear in SMILES notation.

The LOAEL is the lowest tested level that showed an adverse finding. What is called NOAEL is the highest tested level that showed no adverse finding. Consider `CCCCC(CC)COC(=O)c1ccccc1C(=O)OCC(CC)CCCC` (stereo not given) [Di(2-ethylhexyl) phthalate], for which the LEL with rat [1] was found to be 0.25 mg/kg/day; in the data set on rat [2] (setting [10]), 391 mg/kg/day; in the data set with rat [2] (group: parental, systemic / organ weight / liver / relative to body weight + systemic / pathology microscopic / kidney / dilatation + systemic / pathology …), 48 mg/kg/day; in the data set with rat [2] (setting [12]), 391 mg/kg/day; in the data set on mouse [3] it was 171 mg/kg/day; in the data set on mouse [4] (setting [13]), 900 mg/kg/day. The LEL is 300 mg/kg/day in the data set on rat [5] (setting [14]), 666 mg/kg/day in the data set on rat [6] (setting [15]) and 357 mg/kg/day with rat [6] (setting [17]). In addition, the LOAEL in the data set with rat [1] is above 250 mg/kg/day; in the data set with rat [2] (setting [10]), above 391 mg/kg/day; in the data set with rat [2] (setting [11]) it was above 391 mg/kg/day; in the data set on rat [2] (setting [12]), above 391 mg/kg/day; in the data set with mouse [4] (systemic / pathology microscopic / testes / degeneration), 900 mg/kg/day; in the data set with rat [5] (systemic / in life observation / body weight / body weight gain + systemic / pathology microscopic / testes / degeneration) it was 600 mg/kg/day. Besides, the LOAEL in the data set on rat [6] (setting [15]) and in the data set with rat [6] (setting [16]) was 666 mg/kg/day throughout. Further, the NEL in the data set on rat [1] was below 0.25 mg/kg/day; with rat [2] (setting [10]) it was 48 mg/kg/day; in the data set with rat [2] (setting [11]) it was 14 mg/kg/day; in the data set on rat [2] (group: reproductive, reproductive / reproductive performance / fertility / fertility) it was 48 mg/kg/day; in the data set on mouse [3], 56 mg/kg/day; with mouse [4] (systemic / pathology microscopic / liver / carcinoma + systemic / in life observation / body weight / body weight + systemic / in life …), 450 mg/kg/day. For the same compound, the figures for the NEL with rat [5] (setting [14]), in the data set with rat [6] (setting [15]) and with rat [6] (setting [17]) were below 300 mg/kg/day, 357 mg/kg/day and below 357 mg/kg/day, respectively. In addition, the NOAEL was at least 250 mg/kg/day in the data set on rat [1]; at least 391 mg/kg/day with rat [2] (setting [10]); at least 391 mg/kg/day in the data set on rat [2] (setting [11]); at least 391 mg/kg/day in the data set with rat [2] (setting [12]); 450 mg/kg/day in the data set on mouse [4] (setting [13]); 300 mg/kg/day in the data set on rat [5] (systemic / in life observation / body weight / body weight gain + systemic / pathology microscopic / liver / carcinoma + systemic / in life …). For the same compound, the NOAEL in the data set with rat [6] (setting [15]) and with rat [6] (setting [16]) was 357 mg/kg/day each time.

In the case of `O=NN(c1ccccc1)c1ccccc1` [N-Nitrosodiphenylamine], the LEL with rat [7] came to 200 mg/kg/day; in the data set on mouse [8] it was 347 mg/kg/day; in the data set with rat [9] (setting [18]), 50 mg/kg/day. The LOAEL stood at 200 mg/kg/day with rat [7], 347 mg/kg/day in the data set with mouse [8] and 200 mg/kg/day in the data set with rat [9] (systemic / pathology microscopic / urinary bladder / hyperplasia). Besides, the NEL is below 347 mg/kg/day in the data set with mouse [8] and below 50 mg/kg/day with rat [9] (setting [18]). Further, the NOAEL with mouse [8] is below 347 mg/kg/day; in the data set with rat [9] (systemic / pathology microscopic / urinary bladder / hyperplasia + systemic / in life observation / body weight / body weight + systemic / …), 50 mg/kg/day.

As to `O=C([O-])c1ccc2ccccc2c1.O=C([O-])c1ccc2ccccc2c1.[Zn+2]` [Zinc naphthenate], the no-observed-adverse-effect level (NOAEL) with rabbit was below 100 mg/kg/day.
